Experimental data as given in US20060084684A1, “Topically applicable pharmaceutical preparation” (Altana Pharma AG, priority 2002, published 2006).
In brackets after ≈: the same amount, converted by molar mass.

Columns and labels:
Solubility in water = assay type: physicochemical; conditions: at 21° C.
Excerpt: For treating disorders of the skin it Is desirable to provide the active pharmaceutical ingredient in a pharmaceutical preparation suitable for topical application.

[1] = Kinetic parameters after oral administration (comparison); assay type: in vivo, rat
Description: Comparison with kinetic parameters after oral administration of 1 mg/kg: […]

- solubility (Solubility in water): 0.53 µg/mL (≈ 1.31 µM)
- excretion with the urine ([1]; oral administration): 18.4 % of the dose
- AUC(0-24 h) ([1]; oral administration of 1 mg/kg): 3.10 mg equiv./l×h
- Cmax ([1]; oral administration of 1 mg/kg): 0.225 mg equiv./l
Compound: O=C(Nc1c(Cl)cncc1Cl)c1ccc(OC(F)F)c(OCC2CC2)c1 [roflumilast, N-(3,5-dichloropyrid-4-yl)-3-cyclopropylmethoxy-4-difluoromethoxybenzamide]
